{"source": "patent US20180009764A1", "about": "“METHOD FOR TREATING MACROPHAGE MIGRATION INHIBITORY FACTOR (MIF)-IMPLICATED DISEASES AND CONDITIONS WITH IODO PYRIMIDINE DERIVATIVES” (UNIVERSITY OF LOUISVILLE RESEARCH FOUNDATION, INC., priority 2009, published 2018)", "system": "DU145 human prostate xenografts", "assay": "In vivo efficacy in DU145 xenograft tumor model", "design": "species or system athymic nude mice", "details": "daily IP 40 mg/kg for 4 weeks; FIG. 8", "experimental": "Athymic nude mice at 7-8 weeks of age were used for the study. Mice were housed in microisolator housing, with food and water provided as libitum, and quarantined for 4 days prior to the initiation of the study. DU145 cells were maintained in McCoy's 5A medium supplemented with 10% fetal bovine serum and 2 mM glutamine. Cells at 80% confluence were harvested using 0.25% trypsin/EDTA solution, washed once with PBS and resuspended in a mixture of serum-free medium/Matrigel (1:1 by volume) at a density of 3×10^6 cells/100 μl. 4 groups of 10 mice each were used in the experiment. DU145 cells suspended in 100 μl of a mixture of medium/Matrigel (1:1) were subcutaneously implanted in the right flank region. Animals were monitored for tumor growth daily after cell implantation. When tumor volumes reached 80-100 mm^3, mice were randomized into 4 groups of 10 mice each using only mice having tumor volumes closest to the mean value. Tumor volumes were measured using the formula V=L×W×H×π/6, where L and W represent the longer and shorter diameters of the tumor and H represents the height of the tumor. Treatment began the day after randomization. Act-MIF-001, ACT-MIF-002, and ACT-MIF-003 were administered daily by IP injection at a dose of 40 mg/kg for 4 weeks. Throughout the entire study, tumor volumes were measured twice weekly and body weights once weekly.", "data": [{"smiles": "Fc1ccccc1-c1cc(I)ncn1", "note": "[ACT-MIF-003, 4-Iodo-6-(2-fluorophenyl)pyrimidine]", "values": [{"measurement": "Tumor growth inhibition", "value": "significantly inhibited tumor growth"}]}]}
